Where two headings read alike, the source gives them in different places.
Tested on: K. pneumoniae NVT1001 strains with ESBL or AmpC β-lactamase plasmids
Experiment: Etest MIC of β-lactams, OmpK35/36 loss, ΔramR and/or extended-spectrum β-lactamase and AmpC β-lactamase (Table 8)
Assay type: cell-based, Klebsiella pneumoniae
Conditions: Klebsiella pneumoniae
Summary of the method: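 Etest MICs, with values between standard dilutions rounded up to the next two-fold step, were measured in K. pneumoniae NVT1001 carrying PCR-cloned resistance genes on pACYC177 or pACYC184 plasmids. Interpretation used CLSI 2017 breakpoints, CLSI 2015 for cephalothin and EUCAST 2017 for moxifloxacin. For the blaOXA-48 strain, ceftazidime and cefotaxime were additionally tested by CLSI broth microdilution.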

[1] = CMY-2 on pACYC177, WT (NVT1001), read-out: MIC
[2] = CMY-2 on pACYC177, Δ35 (ΔompK35 mutant)
[3] = CMY-2 on pACYC177, Δ35/36 (ΔompK35/36 mutant)
[4] = CMY-2 on pACYC177, Δ36 (ΔompK36 mutant)
[5] = CMY-2 on pACYC177, ΔramR mutant
[6] = CMY-2 on pACYC177, ΔramRΔ35 (ΔramRΔompK35 mutant)
[7] = CMY-2 on pACYC177, ΔramRΔ35/36 (ΔramRΔompK35/36 mutant)
[8] = CMY-2 on pACYC177, ΔramRΔ36 (ΔramRΔompK36 mutant)
[9] = CTX-M-14 on pACYC177, WT (NVT1001), read-out: MIC
[10] = CTX-M-14 on pACYC177, Δ35 (ΔompK35 mutant)
[11] = CTX-M-14 on pACYC177, Δ35/36 (ΔompK35/36 mutant)
[12] = CTX-M-14 on pACYC177, Δ36 (ΔompK36 mutant)
[13] = CTX-M-14 on pACYC177, ΔramR mutant
[14] = CTX-M-14 on pACYC177, ΔramRΔ35 (ΔramRΔompK35 mutant)
[15] = CTX-M-14 on pACYC177, ΔramRΔ35/36 (ΔramRΔompK35/36 mutant)
[16] = CTX-M-14 on pACYC177, ΔramRΔ36 (ΔramRΔompK36 mutant)
[17] = CTX-M-15 on pACYC177, WT (NVT1001), read-out: MIC
[18] = CTX-M-15 on pACYC177, Δ35 (ΔompK35 mutant)
[19] = CTX-M-15 on pACYC177, Δ35/36 (ΔompK35/36 mutant)
[20] = CTX-M-15 on pACYC177, Δ36 (ΔompK36 mutant)
[21] = CTX-M-15 on pACYC177, ΔramR mutant
[22] = CTX-M-15 on pACYC177, ΔramRΔ35 (ΔramRΔompK35 mutant)
[23] = CTX-M-15 on pACYC177, ΔramRΔ35/36 (ΔramRΔompK35/36 mutant)
[24] = CTX-M-15 on pACYC177, ΔramRΔ36 (ΔramRΔompK36 mutant)
[25] = DHA-1-AmpR on pACYC177, WT (NVT1001), read-out: MIC
[26] = DHA-1-AmpR on pACYC177, Δ35 (ΔompK35 mutant)
[27] = DHA-1-AmpR on pACYC177, Δ35/36 (ΔompK35/36 mutant)
[28] = DHA-1-AmpR on pACYC177, Δ36 (ΔompK36 mutant)
[29] = DHA-1-AmpR on pACYC177, ΔramR mutant
[30] = DHA-1-AmpR on pACYC177, ΔramRΔ35 (ΔramRΔompK35 mutant)
[31] = DHA-1-AmpR on pACYC177, ΔramRΔ35/36 (ΔramRΔompK35/36 mutant)
[32] = DHA-1-AmpR on pACYC177, ΔramRΔ36 (ΔramRΔompK36 mutant)
[33] = SHV-12 on pACYC177, WT (NVT1001), read-out: MIC
[34] = SHV-12 on pACYC177, Δ35 (ΔompK35 mutant)
[35] = SHV-12 on pACYC177, Δ35/36 (ΔompK35/36 mutant)
[36] = SHV-12 on pACYC177, Δ36 (ΔompK36 mutant)
[37] = SHV-12 on pACYC177, ΔramR mutant
[38] = SHV-12 on pACYC177, ΔramRΔ35 (ΔramRΔompK35 mutant)
[39] = SHV-12 on pACYC177, ΔramRΔ35/36 (ΔramRΔompK35/36 mutant)
[40] = SHV-12 on pACYC177, ΔramRΔ36 (ΔramRΔompK36 mutant)
[41] = no supplemental plasmid, WT (NVT1001), read-out: MIC
[42] = no supplemental plasmid, Δ35 (ΔompK35 mutant)
[43] = no supplemental plasmid, Δ35/36 (ΔompK35/36 mutant)
[44] = no supplemental plasmid, Δ36 (ΔompK36 mutant)
[45] = no supplemental plasmid, ΔramR mutant
[46] = no supplemental plasmid, ΔramRΔ35 (ΔramRΔompK35 mutant)
[47] = no supplemental plasmid, ΔramRΔ35/36 (ΔramRΔompK35/36 mutant)
[48] = no supplemental plasmid, ΔramRΔ36 (ΔramRΔompK36 mutant)

SMILES: C[C@@H](O)[C@H]1C(=O)N2C(C(=O)O)=C(SCCN=CN)C[C@H]12 [Imipenem]
- MIC [1]: 1 µg/mL
- MIC [2]: 1 µg/mL
- MIC [3]: > 32 µg/mL
- MIC [4]: 4 µg/mL
- MIC [5]: 1 µg/mL
- MIC [6]: 1 µg/mL
- MIC [7]: 32 µg/mL
- MIC [8]: 32 µg/mL
- MIC [9]: 0.5 µg/mL
- MIC [10]: 0.5 µg/mL
- MIC [11]: 1 µg/mL
- MIC [12]: 0.5 µg/mL
- MIC [13]: 0.25 µg/mL
- MIC [14]: 0.25 µg/mL
- MIC [15]: 0.5 µg/mL
- MIC [16]: 0.5 µg/mL
- MIC [17]: 0.5 µg/mL
- MIC [18]: 0.5 µg/mL
- MIC [19]: 4 µg/mL
- MIC [20]: 0.5 µg/mL
- MIC [21]: 0.5 µg/mL
- MIC [22]: 0.25 µg/mL
- MIC [23]: 2 µg/mL
- MIC [24]: 2 µg/mL
- MIC [25]: 0.5 µg/mL
- MIC [26]: 0.5 µg/mL
- MIC [27]: 32 µg/mL
- MIC [28]: 0.5 µg/mL
- MIC [29]: 0.25 µg/mL
- MIC [30]: 0.25 µg/mL
- MIC [31]: 16 µg/mL
- MIC [32]: 16 µg/mL
- MIC [33]: 0.5 µg/mL
- MIC [34]: 0.5 µg/mL
- MIC [35]: 1 µg/mL
- MIC [36]: 0.5 µg/mL
- MIC [37]: 0.25 µg/mL
- MIC [38]: 0.25 µg/mL
- MIC [39]: 1 µg/mL
- MIC [40]: 0.5 µg/mL
- MIC [41]: 0.5 µg/mL
- MIC [42]: 0.5 µg/mL
- MIC [43]: 0.5 µg/mL
- MIC [44]: 0.5 µg/mL
- MIC [45]: 0.25 µg/mL
- MIC [46]: 0.25 µg/mL
- MIC [47]: 0.5 µg/mL
- MIC [48]: 0.5 µg/mL

SMILES: C[C@@H](O)[C@H]1C(=O)N2C(C(=O)O)=C(S[C@@H]3CN[C@H](C(=O)N(C)C)C3)[C@H](C)[C@H]12 [Meropenem]
- MIC [1]: 0.25 µg/mL
- MIC [2]: 0.25 µg/mL
- MIC [3]: 16 µg/mL
- MIC [4]: 2 µg/mL
- MIC [5]: 0.25 µg/mL
- MIC [6]: 0.25 µg/mL
- MIC [7]: 8 µg/mL
- MIC [8]: 8 µg/mL
- MIC [9]: 0.06 µg/mL
- MIC [10]: 0.125 µg/mL
- MIC [11]: 2 µg/mL
- MIC [12]: 0.125 µg/mL
- MIC [13]: 0.125 µg/mL
- MIC [14]: 0.125 µg/mL
- MIC [15]: 2 µg/mL
- MIC [16]: 2 µg/mL
- MIC [17]: 0.25 µg/mL
- MIC [18]: 0.25 µg/mL
- MIC [19]: 8 µg/mL
- MIC [20]: 0.25 µg/mL
- MIC [21]: 0.25 µg/mL
- MIC [22]: 0.25 µg/mL
- MIC [23]: 4 µg/mL
- MIC [24]: 4 µg/mL
- MIC [25]: 0.25 µg/mL
- MIC [26]: 0.25 µg/mL
- MIC [27]: 8 µg/mL
- MIC [28]: 0.25 µg/mL
- MIC [29]: 0.125 µg/mL
- MIC [30]: 0.25 µg/mL
- MIC [31]: 4 µg/mL
- MIC [32]: 8 µg/mL
- MIC [33]: 0.125 µg/mL
- MIC [34]: 0.125 µg/mL
- MIC [35]: 1 µg/mL
- MIC [36]: 0.125 µg/mL
- MIC [37]: 0.06 µg/mL
- MIC [38]: 0.06 µg/mL
- MIC [39]: 2 µg/mL
- MIC [40]: 1 µg/mL
- MIC [41]: 0.06 µg/mL
- MIC [42]: 0.06 µg/mL
- MIC [43]: 0.5 µg/mL
- MIC [44]: 0.06 µg/mL
- MIC [45]: 0.06 µg/mL
- MIC [46]: 0.06 µg/mL
- MIC [47]: 2 µg/mL
- MIC [48]: 2 µg/mL
